Tested on: T-47D spheroids with HUVEC/MSC, viability
Experiment: Anticancer human tumor T-47D cell line growth inhibition [PI3K];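 also: spheroids exposed to agents for seven days before reading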;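 as to viability, T/C: percent of DMSO vehicle control luminescence so 100% = untreated growth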
Conditions: for IC50: curve of first compound; for viability, T/C: stronger effect = lower value
Method in brief: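 Targeted small molecules plus PI3K inhibitors, half-log dose series from Cmax (default top 10 microM), were applied to heterotypic spheroids of cancer cells with HUVEC and MSCs. Viability indicated growth inhibition.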

[1] = second compound 0.0316 µM, first compound 0.0316 µM
[2] = second compound 0.0316 µM, first compound 0.1 µM
[3] = second compound 0.1 µM, first compound 0.0316 µM
[4] = second compound 0.1 µM, first compound 0.1 µM
[5] = second compound 0.316 µM, first compound 0.0316 µM
[6] = second compound 0.316 µM, first compound 0.1 µM
[7] = second compound 1 µM, first compound 0.0316 µM
[8] = second compound 1 µM, first compound 0.1 µM
[9] = second compound 0.0316 µM, first compound 0.316 µM
[10] = second compound 0.0316 µM, first compound 1 µM
[11] = second compound 0.0316 µM, first compound 3.16 µM
[12] = second compound 0.0316 µM, first compound 10 µM
[13] = second compound 0.1 µM, first compound 0.316 µM
[14] = second compound 0.1 µM, first compound 1 µM
[15] = second compound 0.1 µM, first compound 3.16 µM
[16] = second compound 0.1 µM, first compound 10 µM
[17] = second compound 0.316 µM, first compound 0.316 µM
[18] = second compound 0.316 µM, first compound 1 µM
[19] = second compound 0.316 µM, first compound 3.16 µM
[20] = second compound 0.316 µM, first compound 10 µM
[21] = second compound 1 µM, first compound 0.316 µM
[22] = second compound 1 µM, first compound 1 µM
[23] = second compound 1 µM, first compound 3.16 µM
[24] = second compound 1 µM, first compound 10 µM
[25] = second compound 3.16 µM, first compound 0.0316 µM
[26] = second compound 3.16 µM, first compound 0.1 µM
[27] = second compound 3.16 µM, first compound 0.316 µM
[28] = second compound 3.16 µM, first compound 1 µM
[29] = second compound 3.16 µM, first compound 3.16 µM
[30] = second compound 3.16 µM, first compound 10 µM
[31] = second compound 10 µM, first compound 0.0316 µM
[32] = second compound 10 µM, first compound 0.1 µM
[33] = second compound 10 µM, first compound 0.316 µM
[34] = second compound 10 µM, first compound 1 µM
[35] = second compound 10 µM, first compound 3.16 µM
[36] = second compound 10 µM, first compound 10 µM

CC(C)n1nc(-c2ccc3oc(N)nc3c2)c2c(N)ncnc21 + CC(Nc1ccc2c(c1)OCCn1cc(N3C(=O)OCC3C(F)F)nc1-2)C(N)=O
IC50 (second compound 0.00316 µM): 69.5 nM | IC50 (second compound 0.01 µM): 59.6 nM | IC50 (second compound 0.0316 µM): 51.4 nM | IC50 (second compound 0.1 µM): 28.4 nM | IC50 (second compound 0.316 µM): 5.64 nM | IC50 (second compound 1 µM): 2.28 nM | viability, T/C (second compound 0.00316 µM, first compound 0.000316 µM): 112% | viability, T/C (second compound 0.00316 µM, first compound 0.001 µM): 98% | viability, T/C (second compound 0.00316 µM, first compound 0.00316 µM): 110% | viability, T/C (second compound 0.00316 µM, first compound 0.01 µM): 91.2% | viability, T/C (second compound 0.00316 µM, first compound 0.0316 µM): 88.6% | viability, T/C (second compound 0.00316 µM, first compound 0.1 µM): 33% | viability, T/C (second compound 0.01 µM, first compound 0.000316 µM): 89.2% | viability, T/C (second compound 0.01 µM, first compound 0.001 µM): 97.4% | viability, T/C (second compound 0.01 µM, first compound 0.00316 µM): 94.4% | viability, T/C (second compound 0.01 µM, first compound 0.01 µM): 83.2% | viability, T/C (second compound 0.01 µM, first compound 0.0316 µM): 72.5% | viability, T/C (second compound 0.01 µM, first compound 0.1 µM): 32.2% | viability, T/C (second compound 0.0316 µM, first compound 0.000316 µM): 94.6% | viability, T/C (second compound 0.0316 µM, first compound 0.001 µM): 101% | viability, T/C (second compound 0.0316 µM, first compound 0.00316 µM): 84.5% | viability, T/C (second compound 0.0316 µM, first compound 0.01 µM): 82.4% | viability, T/C [1]: 70.5% | viability, T/C [2]: 25.5% | viability, T/C (second compound 0.1 µM, first compound 0.000316 µM): 76% | viability, T/C (second compound 0.1 µM, first compound 0.001 µM): 90.8% | viability, T/C (second compound 0.1 µM, first compound 0.00316 µM): 89.9% | viability, T/C (second compound 0.1 µM, first compound 0.01 µM): 71.1% | viability, T/C [3]: 48.5% | viability, T/C [4]: 17% | viability, T/C (second compound 0.316 µM, first compound 0.000316 µM): 68.2% | viability, T/C (second compound 0.316 µM, first compound 0.001 µM): 65.1% | viability, T/C (second compound 0.316 µM, first compound 0.00316 µM): 56.5% | viability, T/C (second compound 0.316 µM, first compound 0.01 µM): 41.8% | viability, T/C [5]: 29.9% | viability, T/C [6]: 5.87% | viability, T/C (second compound 1 µM, first compound 0.000316 µM): 57.6% | viability, T/C (second compound 1 µM, first compound 0.001 µM): 56.2% | viability, T/C (second compound 1 µM, first compound 0.00316 µM): 47.9% | viability, T/C (second compound 1 µM, first compound 0.01 µM): 34.4% | viability, T/C [7]: 18.8% | viability, T/C [8]: 3.47%

CC(C)NCC(C(=O)N1CCN(c2ncnc3c2C(C)CC3O)CC1)c1ccc(Cl)cc1 (stereo unspecified) + Cc1nc(NC(=O)N2CCCC2C(N)=O)sc1-c1ccnc(C(C)(C)C(F)(F)F)c1
IC50 (second compound 0.0316 µM): > 10000 nM | IC50 (second compound 0.1 µM): 7980 nM | IC50 (second compound 0.316 µM): > 10000 nM | IC50 (second compound 1 µM): 2120 nM | IC50 (second compound 3.16 µM): 585 nM | IC50 (second compound 10 µM): < 31.6 nM | viability, T/C [1]: 85.2% | viability, T/C [2]: 79.7% | viability, T/C [9]: 84.6% | viability, T/C [10]: 61.1% | viability, T/C [11]: 58.1% | viability, T/C [12]: 55.3% | viability, T/C [3]: 93.5% | viability, T/C [4]: 86.4% | viability, T/C [13]: 81.1% | viability, T/C [14]: 62.6% | viability, T/C [15]: 58.1% | viability, T/C [16]: 47.7% | viability, T/C [5]: 88.7% | viability, T/C [6]: 87.8% | viability, T/C [17]: 73.1% | viability, T/C [18]: 66% | viability, T/C [19]: 49.8% | viability, T/C [20]: 55.5% | viability, T/C [7]: 81.9% | viability, T/C [8]: 82.5% | viability, T/C [21]: 79.1% | viability, T/C [22]: 62.7% | viability, T/C [23]: 43.1% | viability, T/C [24]: 40.3% | viability, T/C [25]: 57.5% | viability, T/C [26]: 57.5% | viability, T/C [27]: 56.7% | viability, T/C [28]: 44.1% | viability, T/C [29]: 37% | viability, T/C [30]: 37.2% | viability, T/C [31]: 37.4% | viability, T/C [32]: 32.9% | viability, T/C [33]: 34.6% | viability, T/C [34]: 27% | viability, T/C [35]: 22.1% | viability, T/C [36]: 28.6%

CC1(C)CCC(CN2CCN(c3ccc(C(=O)NS(=O)(=O)c4ccc(NCC5CCOCC5)c([N+](=O)[O-])c4)c(Oc4cnc5[nH]ccc5c4)c3)CC2)=C(c2ccc(Cl)cc2)C1 + CC(Nc1ncnc2nc[nH]c12)c1cc2cccc(Cl)c2c(=O)n1-c1ccccc1
IC50 (second compound 0.0316 µM): > 10000 nM | IC50 (second compound 0.1 µM): > 10000 nM | IC50 (second compound 0.316 µM): > 10000 nM | IC50 (second compound 1 µM): > 10000 nM | IC50 (second compound 3.16 µM): > 10000 nM | IC50 (second compound 10 µM): > 10000 nM | viability, T/C [1]: 120% | viability, T/C [2]: 75.2% | viability, T/C [9]: 85.7% | viability, T/C [10]: 80.9% | viability, T/C [11]: 81% | viability, T/C [12]: 79.5% | viability, T/C [3]: 110% | viability, T/C [4]: 96% | viability, T/C [13]: 99.5% | viability, T/C [14]: 83.7% | viability, T/C [15]: 89.6% | viability, T/C [16]: 83.6% | viability, T/C [5]: 88.5% | viability, T/C [6]: 101% | viability, T/C [17]: 86% | viability, T/C [18]: 89.7% | viability, T/C [19]: 85.3% | viability, T/C [20]: 81% | viability, T/C [7]: 96.9% | viability, T/C [8]: 93.4% | viability, T/C [21]: 91% | viability, T/C [22]: 80.3% | viability, T/C [23]: 77.1% | viability, T/C [24]: 79.2% | viability, T/C [25]: 91.6% | viability, T/C [26]: 88.9% | viability, T/C [27]: 97.3% | viability, T/C [28]: 95.5% | viability, T/C [29]: 87.3% | viability, T/C [30]: 66.8% | viability, T/C [31]: 96.5% | viability, T/C [32]: 94.4% | viability, T/C [33]: 88.8% | viability, T/C [34]: 89% | viability, T/C [35]: 86.1% | viability, T/C [36]: 79.8%

Source: PubChem BioAssay AID1963959 (Molecular Pharmacology Branch, DTP, NCI, 2024)
